Some test systems named below: 786-0; EKVX; HCT-116; HCT-15; HOP-62; HOP-92; Hs-578T; K562; M14; MDA-MB-231; MDA-N; NCI-H226; NCI-H460; NCI-H522; OVCAR-4; RXF 393; SF-268; SNB-75; UACC-62; UO-31.
Holding throughout (assay): DTP human tumour cell line panel, 48 h

“And” between values parts separate entries of the source, which are not always exact repeats. Equal values may be shown once.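 A five-concentration, 48-hour dose response in 96-well plates underlies each endpoint, interpolated linearly between surrounding concentrations. Here, GI50 denotes the concentration required for 50% inhibition of growth.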 The source made the active and inactive calls. Rule as the data show it: active = GI50 up to about 1.1 µM and inactive = higher.

Consider `COc1ccc2c(Cl)cc(NC(=S)Nc3ccccc3)nc2c1`, for which the GI50 (in general, the concentration at which growth is held to half of that of the control) in the test with 786-0 was 22.3 µM (inactive); in the test with EKVX, 22 µM (inactive); with HCT-116, 20.2 µM (inactive); in the test on HCT-15, 27.9 µM; in the test with HOP-62, 35.5 µM (inactive); in the test on HOP-92, 21.8 µM (inactive). In addition, the GI50 in the test with Hs-578T was 14.4 µM (inactive); in the test with K562, 23.4 µM (inactive); with M14 it was 18.3 µM (inactive); with MDA-MB-231 it was 26.4 µM (inactive); in the test on MDA-N, 15.4 µM (inactive); in the test with NCI-H226 it was 55.5 µM (inactive). In addition, the GI50 in the test with NCI-H460 was 32.3 µM (inactive); in the test with NCI-H522, 13.2 µM (inactive); with OVCAR-4, 32.4 µM (inactive); in the test on RXF 393, 20.2 µM (inactive); in the test on SF-268, 24.8 µM (inactive); in the test with SNB-75, 23.6 µM (inactive). The GI50 in the test on UACC-62 is 17.2 µM (inactive).
Take `N=C(N)N/N=C/c1c(-c2cc([N+](=O)[O-])c(Cl)cc2Cl)nc2sccn12`: the GI50 in the test on 786-0 is 1.67 µM (inactive); in the test on EKVX it was 1.72 µM (inactive) and 1.77 µM (inactive); in the test with HCT-15, 2.47 µM and 1.26 µM; in the test on HOP-62 it was 1.89 µM (inactive); with HOP-92 it was 1.8 µM (inactive) and 1.13 µM (inactive); with Hs-578T it was 1.54 µM (inactive) and 1.53 µM (inactive). Moreover, the GI50 in the test on K562 was 242 nM (active) and 746 nM (active); with M14 it was 1.66 µM (inactive); in the test with MDA-MB-231, 200 nM (active) and 2.02 µM (inactive); with MDA-N, 1.48 µM (inactive); with NCI-H226, 2.04 µM (inactive); with NCI-H460 it was 1.86 µM (inactive) and 1.73 µM (inactive). For the same compound, the GI50 is 340 nM (active) and 1.76 µM (inactive) in the test with NCI-H522; 1.66 µM (inactive) in the test on OVCAR-4; 1.46 µM (inactive) in the test with RXF 393; 1.83 µM (inactive) in the test on SF-268; 0.0155 µM (active) with SNB-75; 1.56 µM (inactive) and 1.94 µM (inactive) in the test with UACC-62. Moreover, the GI50 in the test on UO-31 is 2.05 µM (inactive) and 1.29 µM (inactive).
For the compound `CC(=O)c1ccc2c(c1)CC1(C2)Cc2ccc3c(c2C1=O)CCC3` (centres undefined), the GI50 with 786-0 was 17.6 µM (inactive); in the test on HCT-116, 28.3 µM (inactive); in the test with HCT-15 it was 25 µM; with HOP-62 it was 38.9 µM (inactive); in the test on HOP-92, 14.2 µM (inactive); in the test with Hs-578T, 31.5 µM (inactive). The GI50 is 15 µM (inactive) in the test on K562; 20 µM (inactive) in the test with M14; 35.6 µM (inactive) in the test with MDA-MB-231; 21.8 µM (inactive) with MDA-N; 19 µM (inactive) in the test with NCI-H226; 29.3 µM (inactive) with NCI-H460. Moreover, the GI50 with NCI-H522 is 19.1 µM (inactive); in the test on OVCAR-4, 19.2 µM (inactive); with RXF 393 it was 24.7 µM (inactive); with SF-268, 31.2 µM (inactive); with SNB-75 it was 20 µM (inactive); in the test on UACC-62 it was 22.1 µM (inactive). Moreover, the GI50 with UO-31 is 28.4 µM (inactive).
For the compound `CC1(C)CCCCCC(C)(CCCCCCCCCCCO)C1=O` (centres undefined), the GI50 was 16.2 µM (inactive) in the test with 786-0; 17.6 µM (inactive) in the test on EKVX; 15.3 µM (inactive) in the test on HCT-116; 16.1 µM in the test with HCT-15; 17.7 µM (inactive) in the test on HOP-62; 17.3 µM (inactive) in the test with HOP-92. The GI50 in the test with Hs-578T was 16.3 µM (inactive); with K562, 15.3 µM (inactive); with MDA-MB-231, 16.3 µM (inactive); in the test on MDA-N, 17.9 µM (inactive); with NCI-H226 it was 17.1 µM (inactive); with NCI-H460, 17.1 µM (inactive). Moreover, the GI50 in the test on NCI-H522 was 17.3 µM (inactive); in the test with OVCAR-4, 15.5 µM (inactive); in the test on RXF 393 it was 16.9 µM (inactive); in the test with SF-268, 16.1 µM (inactive); in the test on SNB-75 it was 16.3 µM (inactive); in the test on UACC-62, 15.5 µM (inactive). Besides, in the test on UO-31, the GI50 is 17 µM (inactive).
For the compound `O=Cc1[nH]c(=O)[nH]c(=O)c1CCl`, the GI50 with 786-0 was 74.8 µM (inactive); in the test on EKVX, > 100 µM (inactive); in the test on HCT-116 it was 50.5 µM (inactive); in the test with HCT-15, over 65.8 µM; with HOP-62, > 100 µM (inactive); with HOP-92 it was > 62.1 µM (inactive). The GI50 with Hs-578T was > 100 µM (inactive); in the test on K562, 50.8 µM (inactive); with MDA-MB-231 it was > 100 µM (inactive); in the test with MDA-N, > 100 µM (inactive); with NCI-H226, > 100 µM (inactive); with NCI-H460, > 55.8 µM (inactive). Also, the GI50 was > 100 µM (inactive) with NCI-H522; > 60.5 µM (inactive) with OVCAR-4; 71.6 µM (inactive) in the test with RXF 393; > 59.3 µM (inactive) in the test with SF-268; 10.9 µM (inactive) in the test with SNB-75; > 96.4 µM (inactive) in the test on UACC-62. Also, the GI50 with UO-31 was > 100 µM (inactive).
Regarding `CCn1c(-c2ccc(OC)cc2)nc2c1C(=O)c1ccccc1C2=O`, the GI50 with 786-0 is > 100 µM (inactive); in the test with EKVX, > 100 µM (inactive); in the test on HCT-116, > 100 µM (inactive); in the test on HCT-15, over 100 µM; with HOP-62, 59.6 µM (inactive); in the test on HOP-92, > 100 µM (inactive). Also, the GI50 in the test with Hs-578T was > 100 µM (inactive); in the test on K562, > 100 µM (inactive); with M14, > 100 µM (inactive); with MDA-MB-231, > 100 µM (inactive); in the test on MDA-N, > 100 µM (inactive); in the test on NCI-H226, 61.1 µM (inactive). Besides, the GI50 with NCI-H460, with NCI-H522, in the test on OVCAR-4, in the test on RXF 393, in the test on SF-268 and in the test on SNB-75 was > 100 µM (inactive) throughout. Besides, the GI50 in the test on UACC-62 was > 100 µM (inactive).
On to `COc1ccc2[nH]c3c(C)c4ncccc4c(C)c3c2c1`, for which the GI50 is 1.52 µM (inactive) in the test on 786-0; 4.97 µM (inactive) with EKVX; 3.4 µM (inactive) with HCT-116; 2.99 µM with HCT-15; 6.84 µM (inactive) in the test with HOP-62; 8.34 µM (inactive) with HOP-92. For the same compound, the GI50 with Hs-578T is > 10 µM (inactive); with K562, 3.68 µM (inactive); in the test with M14, 1.64 µM (inactive); with MDA-MB-231, > 10 µM (inactive); in the test with MDA-N, 6.81 µM (inactive); with NCI-H226 it was 4.41 µM (inactive). The GI50 in the test on NCI-H460 was 2.12 µM (inactive); in the test on NCI-H522, > 10 µM (inactive); with OVCAR-4, 7.43 µM (inactive); with RXF 393 it was 3.59 µM (inactive); with SF-268 it was > 10 µM (inactive); with SNB-75, 9.91 µM (inactive). Also, in the test with UACC-62, the GI50 was > 10 µM (inactive).
`Cc1nc2ccccc2c(=O)n1NC(=O)Cc1ccccc1`: the GI50 in the test on 786-0, in the test with EKVX, in the test with HCT-116, in the test with HOP-62, in the test with HOP-92 and in the test on Hs-578T was > 100 µM (inactive) in each case. Moreover, the GI50 in the test on K562, in the test on M14, in the test with MDA-MB-231, in the test on MDA-N, with NCI-H226 and in the test with NCI-H460 was > 100 µM (inactive) in each case. Moreover, the GI50 was > 100 µM (inactive) in the test on NCI-H522; > 100 µM (inactive) in the test on OVCAR-4; > 100 µM (inactive) in the test with RXF 393; > 100 µM (inactive) in the test on SF-268; 31 µM (inactive) in the test with SNB-75; 43.5 µM (inactive) in the test with UACC-62. Also, in the test with UO-31, the GI50 is > 100 µM (inactive).
As to `C=C(Cl)/C(=C\Cl)CCC(Cl)C(C)C` (centres undefined), the GI50 in the test with 786-0, in the test on EKVX, in the test with HCT-116, with HOP-62, with HOP-92 and with Hs-578T was > 100 µM (inactive) each time. The GI50 with K562 was 54.3 µM (inactive); in the test on M14, 84.9 µM (inactive); with MDA-MB-231 it was > 100 µM (inactive); in the test with MDA-N it was > 100 µM (inactive); in the test on NCI-H226 it was > 100 µM (inactive); with NCI-H460 it was > 100 µM (inactive). Also, the GI50 in the test on NCI-H522 is 59.4 µM (inactive); in the test on OVCAR-4, > 100 µM (inactive); in the test on RXF 393, > 100 µM (inactive); with SF-268, > 100 µM (inactive); with SNB-75, > 100 µM (inactive); in the test with UACC-62 it was > 100 µM (inactive). Also, the GI50 with UO-31 was > 100 µM (inactive).
With `COCCOCCOC1=CC(=O)c2c(O)ccc(O)c2C1=O`, the GI50 in the test with 786-0 is 1.8 µM (inactive); with EKVX, 2.86 µM (inactive); with HCT-116, 0.307 µM (active); in the test with HOP-62, 1.71 µM (inactive); in the test on HOP-92, 2.18 µM (inactive); in the test with Hs-578T, 2.47 µM (inactive). Further, the GI50 was 0.671 µM (active) in the test on K562; 0.971 µM (active) in the test with M14; 1.49 µM (inactive) with MDA-MB-231; 0.153 µM (active) in the test with MDA-N; 2.3 µM (inactive) with NCI-H226; 1.91 µM (inactive) in the test on NCI-H460. The GI50 in the test on NCI-H522 was 1.57 µM (inactive); in the test with OVCAR-4 it was 1.73 µM (inactive); with RXF 393 it was 2.07 µM (inactive); in the test with SF-268, 2.59 µM (inactive); with SNB-75 it was 1.82 µM (inactive); in the test on UACC-62 it was 1.45 µM (inactive). In addition, the GI50 in the test on UO-31 was 1.62 µM (inactive).
For `CC(C)OC(=O)[C@@H]1OC(C)(C)O[C@H]1C(=O)OC(C)C`, the GI50 in the test with 786-0 is > 100 µM (inactive); in the test on EKVX, > 100 µM (inactive); with HCT-116, > 100 µM (inactive); in the test with HCT-15, over 100 µM; in the test on HOP-62, > 100 µM (inactive); with HOP-92, > 100 µM (inactive). The GI50 in the test with Hs-578T, with K562, with MDA-MB-231, in the test with MDA-N, with NCI-H226 and in the test with NCI-H460 was > 100 µM (inactive) throughout. Besides, the GI50 in the test on NCI-H522, with OVCAR-4, with RXF 393, in the test on SF-268, in the test with SNB-75 and in the test on UACC-62 was > 100 µM (inactive) throughout. Besides, the GI50 in the test with UO-31 was > 100 µM (inactive).

(Values after ChEMBL document CHEMBL1201862, “PubChem BioAssay data set” (2004).)
